According to US20080176905A1, “Polymorphic forms of rosiglitazone hydrobromide and processes for preparation thereof” (priority 2007, published 2008):
Structures can show the parent of a compound that is named as a salt.

What was measured:
[1] = Weight loss on drying measured by TGA; format: physicochemical; conditions: for Weight loss, as measured by TGA: general statement in description, hydrobromide
Description: TGA analysis was preformed using Mettler 3M with Mettler TG 50 thermobalance. The weight of the samples was about 10 mg; the samples were scanned at a rate of 10° C./min from 25° C. to 200 or 250° C. The oven was constantly purged with nitrogen gas at a flow rate of 40 ml/min. Standard alumina crucibles covered by lids with 1 hole were used.

[2] = Polymorphic stability of Form I in compacted tablet with excipients; format: physicochemical; conditions: compacted with lactose monohydrate, sucrose and avicel
Source text: Solid pharmaceutical compositions of Form I and the following excipients were compacted into a dosage form like a tablet: lactose monohydrate, sucrose and avicel. The polymorphic stability of Rosiglitazone form I in such tablet was examined and determined to be stable.

[3] = relative humidity 100%
[4] = Crystalline stability of Form I under pressure, grinding and heating (XRD of resulting material)
[5] = Water content by Karl Fisher (KF) analysis; format: physicochemical; conditions: for Water content, as measured by KF: general statement in description, hydrobromide
Source text: As used herein, the term “water content” refers to the content of water based upon the Loss on Drying method (the “LOD” method) as described in UPS 29-NF 24, official Aug. 1, 2006, Physical Test and Determinations, <731> LOSS ON DRYING or in Pharmacopeial Forum, Vol. 24, No. 1, p. 5438 (January-February 1998), the Karl Fisher assay for determining water content or thermogravimetric analysis (TGA). All percentages herein are by weight unless otherwise indicated. As used herein, the term “monohydrate” when used in reference to Rosiglitazone hydrobromide describes Rosiglitazone hydrobromide having water content of between about 3.9-4.1% w/w. As used herein, the term “hemi-hydrate” when used in reference to Rosiglitazone hydrobromide describes Rosiglitazone hydrobromide having a water content of about 1.8-2.1% w/w. As used herein, the term “quarter-hydrate” when used in reference to Rosiglitazone hydrobromide describes Rosiglitazone hydrobromide having a water content of about 0.7-1.0% w/w.
Water content was determined by Karl Fisher analysis using Mettler Toledo DL 38 Karl Fisher Titrator.

[6] = 0 % RH, room temperature, 7 days
[7] = 100 % RH, room temperature, 7 days
[8] = listed as Rosiglitazone hydrobromide Form I
[9] = listed as Rosiglitazone hydrobromide Form II

SMILES | TGA (weight loss on drying) [1, 6] | TGA (weight loss on drying) [1, 7] | TGA (weight loss on drying) ([1]; As is) | Weight loss, as measured by TGA [1, 8] | Polymorphic stability in tablet [2] | Stability under extreme relative humidity conditions [3] | Stability under extreme heating conditions ([4]; 80° C. for 30 minutes) | Stability under high pressure and grinding conditions ([4]; high pressure and grinding) | KF (water content) [5, 6] | KF (water content) [5, 7] | KF (water content) ([5]; As is) | Water content, as measured by KF [5, 8] | Water content ([5]; relative humidity of about 0%, corresponds to a quarter-hydrate) | Water content ([5]; relative humidity of about 50%, corresponds to a hemihydrate) | Hydrate obtained on maintaining at relative humidity ([5]; relative humidity of about 100%) | Weight loss, as measured by TGA [1, 9] | Water content, as measured by KF [5, 9]
CN(CCOc1ccc(CC2SC(=O)NC2=O)cc1)c1ccccn1 (centres unmarked) [Form I, Rosiglitazone hydrobromide] | 0.7 | 3.9 | 4.1 | 0.7-4.1 % by weight | stable | stable | stable | stable | 1% | 4.1% | 4.1% | 1.0-4.1 % by weight | about 1% | about 2% | a monohydrate is obtained |  | 
CN(CCOc1ccc(CC2SC(=O)NC2=O)cc1)c1ccccn1 (centres unmarked) [Form II, Rosiglitazone hydrobromide] |  |  |  |  |  |  |  |  |  |  |  |  |  |  |  | about 3.9 % by weight | about 4.1 % by weight
